From paper PMC7867085, “In Vitro and In Vivo Antitumor Activity of Indolo[2,3-b] Quinolines, Natural Product Analogs from Neocryptolepine Alkaloid” (Molecules, 2021)

How the values were obtained:
[1] = system: splenic lymphocytes of EAC bearing mice; assay: Splenic lymphocyte count in EAC bearing mice; assay type: in vivo, Swiss female albino mice; conditions: 100 mg/kg SC for 5 days
Procedure: This reduction is reconfirming the reported fact that tumor causes massive depletion in immune cell numbers. Table 7 shown the reduced splenic lymphocyte results were a reaffirmation that cancer disabled normal lymphocyte development. The effective dose of indoloquinoline analogs, given throughout this study; 100 mg/kg for 5 constitutive days subcutaneously, reported an increase in the spleen cell number providing evidence that they protect the lymphoid organ of mice with tumor as illustrated in (Table 7).
Under sterile conditions, the spleens were eliminated, and the single cell suspension was made in RPMI 1640 medium. Splenic lymphocytes were purified as described earlier. Viable splenic lymphocytes were counted in a hemocytometer by trypan blue exclusion test and used for further analysis.
During the study, female Swiss albino mice (normal, treated, and untreated) were anesthetized. Under sterile conditions, after scattering 70% alcohol on the abdominal region, the spleen was removed and then injected with a minor amount of PBS. Spleen was pressed across the fine mesh of the tissue grinder. After centrifuging the produced cell suspension at 1000 rpm for 5 min, the supernatant was discarded, and the cells were washed at room temperature by centrifugation in PBS twice. Trypan blue extrusion method was used to evaluate cell viability, and a phase-contrast microscope was used for cell counting. The experiment was done in tripartite.

[2] = system: solid-tumor (EAC) bearing mice (liver homogenate); assay: Lipid peroxidation and antioxidant enzymes in liver homogenate of solid-tumor bearing mice; assay type: in vivo, Swiss female albino mice; conditions: 100 mg/kg for 5 days; for CAT / Lipid Peroxidation / SOD: liver
Procedure: Measuring antioxidant enzyme levels and lipid peroxidation was utilized to evaluate the pharmacological effect of indoloquinoline derivatives. The study group was divided into two subgroups, normal mice and tumor-bearing mice. Each subgroup is further subdivided into two groups, one group received indoloquinoline derivatives, and the other group was marked as a placebo group.
After administration of indoloquinoline analogs 6a, 6b, 6c and 6d at a dose of 100 mg/kg for 5 constitutive days to mice with EAC, the levels of lipid peroxidation were highly significant less than that of the positive control group (p < 0.001). Meanwhile, the level of SOD in the liver homogenate of positive bearing mice was 32.1% (p < 0.001) less than that of the normal group (Table 5).
The eradicated liver was double washed first, with ice-cold normal saline then, with cold 0.15 mol/L Tris-HCl buffer (pH 7.4). The clean organ was dried and weighed, and used to prepare a 10% w/v homogenate in 0.15 mol/L Tris-HCl buffer. A portion of the prepared homogenate was centrifuged at 1500 rpm for 15 min at 4 °C [47] and used for estimating lipid peroxidation, SOD [48] and CAT [49] analysis was carried out using the supernatant.

EAC-induced solid tumor = assay: Antitumor activity: reduction in tumor volume of EAC-induced solid tumor; assay type: in vivo, Swiss female albino mice; conditions: day 12 (last day of treatment), 100 mg/kg SC daily for five consecutive days
Procedure: The aim of this study is to characterize indoloquinoline analogs 6a–d curative ability and antineoplastic activity on solid-form of Ehrlich tumors. Tumor volume is a potential biomarker for Ehrlich tumor development. The induction of solid tumor in Swiss female mice performed by inserting 0.2 mL of EAC cells (2 × 10^6 cell/mL) subcutaneously (SC) between thighs of the lower limb. When the tumor volume reached 15–20 mm^3 (Seven days after tumor induction), the mice were randomly divided into 6 groups (n = 10), five groups were injected subcutaneously with thalidomide and indoloquinoline analogs 6a–d (100 mg/kg) daily for five consecutive days, the sixth group (positive control group) were given DMSO/saline (0.3/0.7). The 8th day is considered the zero days of treatment. The tumor volume was daily measured with a vernier caliper for four days stated from day eight.
Thalidomide and indoloquinoline derivatives 6a–d were tested for their antitumor effect; the test was done in vivo on mice-bearing solid tumors. The induction of solid tumor in Swiss female mice performed by inserting 0.2 mL of EAC cells (2 × 10^6 cell/mL) subcutaneously (SC) between thighs of the lower limb. Seven days after tumor induction, animals were divided into 6 groups (n = 10), five groups were injected subcutaneously with 100 mg/kg of tested compounds daily for 5 consecutive days, the sixth group (positive control group) were given 0.3 DMSO/0.7 H2O. On day twelve, after carrying out EAC cells, mice were sacrificed, dissected, and change in tumor mass was evaluated by measuring the developed tumor mass volume using the formula [45, 46]:Tumor volume (mm^3) = 0.52 × length × (width)^2.(1)

Swiss albino mice = assay: Acute / short-term toxicity study, single subcutaneous dose; assay type: in vivo; conditions: for No. of Death: 7 mice; for No. of Death / % Mortality: observed 24 h
Procedure: To confirm the safety of indoloquinoline compounds, acute and short-term toxicity studies were done. Forty-two Swiss albino mice were divided into six groups of seven mice each. The first five groups were subcutaneously injected in single graded doses. The first five groups were given a single dose of graded doses (400, 800, 1200, 1600, and 2000 mg/kg body weight) of indoloquinoline analog containing 11-substituted N-methyl piperazinyl side-chain 6d by the subcutaneous route, while the last group received 0.2 mL of (water: DMSO, 7:3) by the same route. The animals were then observed for 24 h for toxicity signs and death. The LD50 of 6d was calculated using the arithmetic methods of Karber as modified by Aliu and Nwude. The mortality rates and calculated LD50 are presented in (Table 3).

Compound | Splenic Lymphocyte Number [1] | increase in lymphocytic count [1] | increase of CAT level against positive control [2] | increase of SOD level in relation to positive control group [2] | CAT [2] | Lipid Peroxidation [2] | SOD [2] | reduction percentage in tumor volume (EAC-induced solid tumor) | No. of Death (Swiss albino mice; 400 mg/kg SC single dose) | % Mortality (Swiss albino mice; 400 mg/kg SC single dose) | No. of Death (Swiss albino mice; 800 mg/kg SC single dose) | % Mortality (Swiss albino mice; 800 mg/kg SC single dose) | No. of Death (Swiss albino mice; 1200 mg/kg SC single dose) | % Mortality (Swiss albino mice; 1200 mg/kg SC single dose) | No. of Death (Swiss albino mice; 1600 mg/kg SC single dose) | % Mortality (Swiss albino mice; 1600 mg/kg SC single dose) | No. of Death (Swiss albino mice; 2000 mg/kg SC single dose) | % Mortality (Swiss albino mice; 2000 mg/kg SC single dose) | LD50 (Swiss albino mice; subcutaneous, mice, arithmetic method of Karber)
5(5-Methyl-5H-indolo[2,3-b] quinolin-11-ylamino) Pyrimidine-2,4(1H,3H)-dione [Compound 6c] | 17.0 ± 0.58 * 10^6/mL | 359.5% | 107.3% | 36.24% | 8.5 ± 0.34 KU/mg Tissue/s | 262.1 ± 1.9 nmol MDA/g Tissue | 129.47 ± 1.38 U/g Tissue | 93.29% |  |  |  |  |  |  |  |  |  |  | 
5-Methyl-N-(4-methylpiperazin-1-yl)-5H-indolo[2,3-b] Quinolin-11-amine [Compound 6d] | 17.0 ± 0.61 * 10^6/mL | 359.5% | 65.8% | 39.8% | 6.8 ± 0.12 KU/mg Tissue/s | 249.9 ± 2.2 nmol MDA/g Tissue | 132.86 ± 0.55 U/g Tissue | 94.90% | 0 | 0% | 2 | 28.5% | 4 | 57.1% | 6 | 85.7% | 7 | 100% | 1000 mg/kg
Cn1c2nc3ccccc3c-2c(Nc2ccc(Br)cc2F)c2ccccc21 [Compound 6a, N-(4-Bromo-2-fluorophenyl)-5-methyl-5H-indolo[2,3-b] Quinolin-11-amine] | 20.0 ± 0.73 * 10^6/mL | 440.5% | 51.2% | 54.4% | 6.2 ± 0.14 KU/mg Tissue/s | 249.3 ± 2.1 nmol MDA/g Tissue | 146.75 ± 2.11 U/g Tissue | 90.58% |  |  |  |  |  |  |  |  |  |  | 
Cn1c2nc3ccccc3c-2c(NCCc2c[nH]c3ccccc23)c2ccccc21 [Compound 6b, N-(2-(1H-Indol-3-yl)ethyl)-5-methyl-5H-indolo[2,3-b] Quinolin-11-amine] | 14.8 ± 1.22 * 10^6/mL | 300% | 78.04% | 53.69% | 7.3 ± 0.16 KU/mg Tissue/s | 268.9 ± 2.8 nmol MDA/g Tissue | 146.06 ± 3.11 U/g Tissue | 87.37% |  |  |  |  |  |  |  |  |  |  | 
